In patent US8501936B2 (priority 2009, dated 2013):
Like-named read-outs stand apart in the source and are kept apart here.

What was measured:
human FAK [1] = target: T1, human FAK (Homo sapiens (Human), UniProt Q05397); conditions: read-out: FAK IC50
Procedure: (§1) The ability of compounds to inhibit the kinase activity of baculovirus-expressed human FAK and PYK2 was measured using the 96-well plate TRF assay system described above for JAK2. […] For the FAK kinase assay, the reaction mixture (total volume=100 μL/well) contained 20 mM HEPES (pH 7.2), 10 μM ATP, 5 mM MgCl2, 0.5 mM DTT, 0.1% BSA, and test compound (diluted in DMSO; 2.5% DMSO final in assay). For PYK2, the 100 μL assay solution consisted of 20 mM HEPES (pH 7.2), 3 μM ATP, 5 mM MnCl2, 0.1% BSA, and test compound (diluted in DMSO; 2.5% DMSO final in assay). Enzyme (10 ng/mL FAK or 25 ng/mL PYK2) was added and the reaction was allowed to proceed at room temperature for 30 min. Detection of the phosphorylated product was performed by adding 100 μL/well of Eu—N1 labeled PY100 antibody diluted 1:75000 in 0.25% BSA in TBS-T (PerkinElmer #AD0041). […] Inhibition data were analyzed using ActivityBase and IC50 curves generated using XLFit.

human JAK2 [2] = target: T2, human JAK2 (Homo sapiens (Human), UniProt O60674); assay: biochemical
human FAK [3] = target: T1, human FAK; assay: biochemical
Procedure: as §1

human JAK2 [4] = target: T2, human JAK2; conditions: read-out: JAK2 IC50

T2 sequence (O60674 815-1132): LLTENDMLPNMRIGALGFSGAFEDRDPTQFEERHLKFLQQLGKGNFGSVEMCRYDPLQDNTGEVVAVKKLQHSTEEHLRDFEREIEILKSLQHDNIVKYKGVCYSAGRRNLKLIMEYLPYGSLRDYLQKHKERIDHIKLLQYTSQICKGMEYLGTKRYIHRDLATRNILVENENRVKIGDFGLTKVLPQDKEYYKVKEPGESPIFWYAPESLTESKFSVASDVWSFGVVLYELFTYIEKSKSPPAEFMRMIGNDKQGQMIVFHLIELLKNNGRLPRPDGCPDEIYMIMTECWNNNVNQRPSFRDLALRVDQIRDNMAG
T1 sequence (Q05397 whole entry): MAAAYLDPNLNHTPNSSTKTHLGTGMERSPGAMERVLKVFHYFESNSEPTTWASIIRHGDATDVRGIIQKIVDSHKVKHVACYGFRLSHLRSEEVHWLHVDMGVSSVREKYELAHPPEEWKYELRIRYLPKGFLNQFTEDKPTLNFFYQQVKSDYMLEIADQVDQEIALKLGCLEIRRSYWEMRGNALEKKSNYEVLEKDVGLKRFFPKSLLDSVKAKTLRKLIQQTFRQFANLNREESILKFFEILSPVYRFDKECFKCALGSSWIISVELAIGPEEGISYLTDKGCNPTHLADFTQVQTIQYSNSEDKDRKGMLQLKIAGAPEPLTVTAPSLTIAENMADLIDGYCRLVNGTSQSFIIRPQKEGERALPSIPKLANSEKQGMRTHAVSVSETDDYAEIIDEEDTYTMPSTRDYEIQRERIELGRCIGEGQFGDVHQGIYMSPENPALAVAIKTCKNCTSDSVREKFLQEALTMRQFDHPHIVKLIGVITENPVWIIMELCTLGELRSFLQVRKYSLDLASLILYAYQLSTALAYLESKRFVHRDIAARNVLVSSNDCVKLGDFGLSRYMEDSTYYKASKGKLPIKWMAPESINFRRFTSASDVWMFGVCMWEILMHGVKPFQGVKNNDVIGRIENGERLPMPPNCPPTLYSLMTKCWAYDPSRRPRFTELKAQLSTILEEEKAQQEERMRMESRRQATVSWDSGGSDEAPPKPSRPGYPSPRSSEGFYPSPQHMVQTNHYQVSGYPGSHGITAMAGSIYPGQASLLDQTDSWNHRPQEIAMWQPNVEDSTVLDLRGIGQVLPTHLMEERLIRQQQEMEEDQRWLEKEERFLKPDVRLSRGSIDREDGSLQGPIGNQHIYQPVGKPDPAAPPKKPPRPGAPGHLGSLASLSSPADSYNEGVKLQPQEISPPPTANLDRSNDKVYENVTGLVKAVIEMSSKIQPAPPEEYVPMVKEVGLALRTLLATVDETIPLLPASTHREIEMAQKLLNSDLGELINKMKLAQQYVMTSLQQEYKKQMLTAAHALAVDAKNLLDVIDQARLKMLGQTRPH

| Compound | IC50 (human FAK [1]) [nM] | IC50 (human JAK2 [2]) [nM] | IC50 (human FAK [3]) [nM] | IC50 (human JAK2 [4]) [nM] |
| --- | --- | --- | --- | --- |
| CS(=O)(=O)c1ccc(-c2cccn3nc(Nc4cccc(N5CCC(N6CCOCC6)CC5)c4)nc23)cc1 [Example 57, [8-(4-Methanesulfonyl-phenyl)-[1,2,4]triazolo[1,5-a]pyridin-2-yl]-[3-(4-morpholin-4-yl-piperidin-1-yl)-phenyl]-amine] | 1180 | 0.5 |  |  |
| CS(=O)(=O)c1ccc(-c2cccn3nc(Nc4cccc([C@@H]5CCNC[C@@H]5O)c4)nc23)cc1 (racemic) [Example 188, (±)-(cis)-4-{3-[8-(4-Methanesulfonyl-phenyl)-[1,2,4]triazolo[1,5-a]pyridin-2-ylamino]-phenyl}-piperidin-3-ol] |  | 1.43 | 1940 |  |
| CN1CCC(c2ccc(Nc3nc4c(NCc5ccccc5N(C)S(C)(=O)=O)cccn4n3)cc2)CC1 [Example 149, N-Methyl-N-[2-({2-[4-(1-methyl-piperidin-4-yl)-phenylamino]-[1,2,4]triazolo[1,5-a]pyridin-8-ylamino}-methyl)-phenyl]-methanesulfonamide] | 13.6 |  |  | 38.5 |
| COc1ncccc1-c1cccn2nc(Nc3ccc4ncccc4c3)nc12 [Example 274, [8-(2-Methoxy-pyridin-3-yl)-[1,2,4]triazolo[1,5-a]pyridine-2-yl]-quinolin-6-yl-amine] | 10000 |  |  | 192 |
| CC(C)(C)OC(=O)N1CCN(c2cccc(Nc3nc4c(-c5ccc(S(C)(=O)=O)cc5)cccn4n3)c2)CC1 [Example 179, 4-{3-[8-(4-Methanesulfonyl-phenyl)-[1,2,4]triazolo[1,5-a]pyridin-2-ylamino]-phenyl}-piperazine-1-carboxylic acid tert-butyl ester] | 10000 |  |  | 3.72 |
| CS(=O)(=O)c1ccc(-c2cccn3nc(Nc4cccc(N5CCNCC5)c4)nc23)cc1 [Example 181, [8-(4-Methanesulfonyl-phenyl)-[1,2,4]triazolo[1,5-a]pyridin-2-yl]-(3-piperazin-1-yl-phenyl)-amine] | 1130 |  |  | 0.97 |
| CN1CCN(c2ccc(NC(=O)Nc3nc4cccc(-c5cccc(S(C)(=O)=O)c5)n4n3)cc2)CC1 [Example 89, 1-[5-(3-Methanesulfonyl-phenyl)-[1,2,4]triazolo[1,5-a]pyridin-2-yl]-3-[4-(4-methyl-piperazin-1-yl)-phenyl]-urea] | 8830 |  |  | 230 |
| CN1CCN(c2cccc(Nc3nc4c(-c5cccc(CN(C)S(C)(=O)=O)c5)cccn4n3)c2)CC1 [Example 176, N-Methyl-N-(3-{2-[3-(4-methyl-piperazin-1-yl)-phenylamino]-[1,2,4]triazolo[1,5-a]pyridin-8-yl}-benzyl)-methanesulfonamide] | 3000 |  |  | 5.94 |
| CN1CCN(c2ccc(Nc3nc4c(-c5ccc(CS(C)(=O)=O)cc5)cccn4n3)cc2)CC1 [Example 48, [8-(4-Methanesulfonylmethyl-phenyl)-[1,2,4]triazolo[1,5-a]pyridin-2-yl]-[4-(4-methyl-piperazin-1-yl)-phenyl]-amine] | 1720 |  |  | 0.7 |
| COc1ccccc1-c1cccn2nc(Nc3ccc(N4CCOCC4)cc3)nc12 [Example 2, [8-(2-Methoxy-phenyl)-[1,2,4]triazolo[1,5-a]pyridin-2-yl]-(4-morpholin-4-yl-phenyl)-amine] | 6500 |  |  | 20 |
| COc1cnc(-c2cccn3nc(Nc4ccc(C5CCN(CC(=O)N(C)C)CC5)cc4)nc23)cn1 [Example 286, 2-(4-{4-[8-(5-Methoxy-pyrazin-2-yl)-[1,2,4]triazolo[1,5-a]pyridine-2-ylamino]-phenyl}-piperidin-1-yl)-N,N-dimethyl-acetamide] | 3000 |  |  | 134 |
| CS(=O)(=O)c1ccc(Nc2nc3c(-c4ccc(S(C)(=O)=O)cc4)cccn3n2)cc1 [Example 112, (4-Methanesulfonyl-phenyl)-[8-(4-methanesulfonyl-phenyl)-[1,2,4]triazolo[1,5-a]pyridin-2-yl]-amine] | 531 |  |  | 1.3 |
| Cn1ncc2c(-c3cccn4nc(Nc5ccc6c(c5)CCNCC6)nc34)cccc21 [Example 298, [8-(1-Methyl-1H-indazol-4-yl)-[1,2,4]triazolo[1,5a]pyridine-2-yl]-(2,3,4,5-tetrahydro-benzo[d]azepin-7-yl)-amine] | 1030 |  |  | 16.5 |
| COc1ccc(C(F)(F)F)cc1-c1cccn2nc(Nc3cccc(N4CCN(C)CC4)c3)nc12 [Example 255, [8-(2-Methoxy-5-trifluoromethyl-phenyl)-[1,2,4]triazolo[1,5-a]pyridin-2-yl]-[3-(4-methyl-piperazine-1-yl)-phenyl]-amine] | 1220 |  |  | 158 |
